Strand notation (5' to 3'): a small letter for the sugar, then the base; units joined by * are phosphorothioate-linked, units joined directly phosphodiester-linked; [ ] holds rarer units or linkages, { } end groups; capitals alone tell only the bases. e = 2'-O-(2-methoxyethyl) (MOE); [5mC] = 5-methylcytosine; d = 2'-deoxy (DNA)
How the values were obtained:
[1] = system: mouse short heterodimer partner-1 mRNA; assay: Inhibition of mouse short heterodimer partner-1 mRNA levels in primary hepatocytes, quantitative real-time PCR; type: cell-based; parameters: concentration or dose not given beside the values; conditions: averages from two experiments
Description: (§1) Primary mouse hepatocytes were prepared from CD-1 mice purchased from Charles River Labs (Wilmington, Mass.) and were routinely cultured in Hepatoyte Attachment Media (Gibco) supplemented with 10% Fetal Bovine Serum (Gibco/Life Technologies, Gaithersburg, Md.), 250 nM dexamethasone (Sigma), and 10 nM bovine insulin (Sigma). Cells were seeded into 96-well plates (Falcon-Primaria #3872) at a density of 10000 cells/well for use in RT-PCR analysis.
(§2) Cells were harvested 16-24 hours after oligonucleotide treatment.
(§3) Vacuum was applied for 15 seconds. […] The elution step was repeated with an additional 60 μL water.
(§4) Total RNA is quantified using RiboGreen™ RNA quantification reagent from Molecular Probes.
(§5) Probes and primers to mouse short heterodimer partner-1 were designed to hybridize to a mouse short heterodimer partner-1 sequence, using published sequence information (GenBank accession number L75567, incorporated herein as SEQ ID NO: 10).
All cytidine residues are 5-methylcytidines. […] Data are averages from two experiments. If present, “N.D.” indicates “no data”.

[2] = system: mouse short heterodimer partner-1 mRNA; assay: Dose-response study: inhibition of mouse short heterodimer partner-1 mRNA levels in primary hepatocyte cells, quantitative real-time PCR; type: cell-based; conditions: averages from two experiments
Description: as §1, §2, §3, §4, §5
In accordance with the present invention, a subset of the antisense oligonucleotides in Example 16 were further investigated in dose-response studies. Treatment doses were 50, 150 and 300 nM.

Substance: 148284 (antisense eG*eA*eG*eG*e[5mC]*dA*d[5mC]*d[5mC]*dA*dG*dA*d[5mC]*dT*d[5mC]*d[5mC]*eA*eT*eT*e[5mC]*e[5mC]) [compound 148284]
- % INHIB (inhibition of mouse short heterodimer partner-1 mRNA levels) [1]: 77%
- Percent Inhibition of mouse short heterodimer partner-1 mRNA levels ([2]; 50 nM oligonucleotide): 6%
- Percent Inhibition of mouse short heterodimer partner-1 mRNA levels ([2]; 150 nM oligonucleotide): 55%
- Percent Inhibition of mouse short heterodimer partner-1 mRNA levels ([2]; 300 nM oligonucleotide): 86%

Substance: 148287 (antisense eG*eT*eT*e[5mC]*eT*dG*dT*dA*d[5mC]*dA*dA*dA*dG*dT*d[5mC]*eA*eG*eG*eA*eG) [compound 148287]
- % INHIB (inhibition of mouse short heterodimer partner-1 mRNA levels) [1]: 74%
- Percent Inhibition of mouse short heterodimer partner-1 mRNA levels ([2]; 50 nM oligonucleotide): 44%
- Percent Inhibition of mouse short heterodimer partner-1 mRNA levels ([2]; 150 nM oligonucleotide): 71%
- Percent Inhibition of mouse short heterodimer partner-1 mRNA levels ([2]; 300 nM oligonucleotide): 89%

Substance: 148286 (antisense eA*eG*eT*e[5mC]*eA*dT*d[5mC]*dA*dA*dG*dG*dG*d[5mC]*dT*dT*eG*e[5mC]*eT*eG*eG) [compound 148286]
- % INHIB (inhibition of mouse short heterodimer partner-1 mRNA levels) [1]: 71%
- Percent Inhibition of mouse short heterodimer partner-1 mRNA levels ([2]; 50 nM oligonucleotide): 42%
- Percent Inhibition of mouse short heterodimer partner-1 mRNA levels ([2]; 150 nM oligonucleotide): 58%
- Percent Inhibition of mouse short heterodimer partner-1 mRNA levels ([2]; 300 nM oligonucleotide): 80%

From patent US20030083484A1, “Antisense modulation of short heterodimer partner-1 expression” (priority 2001, published 2003)
